Source: patent publication US20220119866A1 (priority 2019, published 2022)
Where two headings read alike, the source gives them in different places.

What was measured:
[1] = tested on: Clostridium difficile clade2 strains; assay type: cell-based; details: for Resistance rate to Category 1 (70 strains) / Resistance rate to Category 2 (96 strains) / Resistance rate to Category 3 (217 strains): 383 clade2 strains; for Average resistance rate: all 383 clade2 strains
[2] = tested on: Clostridium difficile hypervirulent ribotype 027 (RT027) strains; assay: drug sensitivity test, resistance rate of 269 RT027 strains; assay type: cell-based; details: for Resistance rate to Category 1 (56 strains) / Resistance rate to Category 2 (23 strains) / Resistance rate to Category 3 (190 strains): 269 RT027 strains; for Resistance rate to Category 2 (23 strains): Category 2 (sensitive branch); for Average resistance rate: all 269 RT027 strains

Row | SMILES | Resistance rate to Category 1 (70 strains) [1] | Resistance rate to Category 2 (96 strains) [1] | Resistance rate to Category 2 (96 strains) ([1]; listed as metronidazole) | Resistance rate to Category 3 (217 strains) [1] | Average resistance rate [1] | Resistance rate to Category 1 (56 strains) [2] | Resistance rate to Category 2 (23 strains) [2] | Resistance rate to Category 2 (23 strains) ([2]; listed as metronidazole) | Resistance rate to Category 3 (190 strains) [2] | Average resistance rate [2] | Resistance rate to Category 2 (96 strains) ([1]; listed as vancomycin) | Resistance rate to Category 3 (217 strains) ([1]; listed as vancomycin) | Resistance rate to Category 2 (23 strains) ([2]; listed as vancomycin) | Resistance rate to Category 3 (190 strains) ([2]; listed as vancomycin)
1 | Cc1ncc([N+](=O)[O-])n1CCO [Metronidazole, metronidazole] | 52.86% | 3.13% | 3.03% | 48.39% | 37.86% | 51.79% | 0.0% | 0.0% | 47.37% | 44.24% |  |  |  | 
2 | CN[C@H](CC(C)C)C(=O)N[C@H]1C(=O)N[C@@H](CC(N)=O)C(=O)N[C@H]2C(=O)N[C@H]3C(=O)N[C@H](C(=O)N[C@H](C(=O)O)c4cc(O)cc(O)c4-c4cc3ccc4O)[C@H](O)c3ccc(c(Cl)c3)Oc3cc2cc(c3O[C@@H]2O[C@H](CO)[C@@H](O)[C@H](O)[C@H]2O[C@H]2C[C@](C)(N)[C@H](O)[C@H](C)O2)Oc2ccc(cc2Cl)[C@H]1O [Vancomycin, vancomycin] | 92.86% | 30.21% |  | 22.58% | 37.34% | 94.64% | 21.74% |  | 21.05% | 36.43% | 30.21% | 22.58% | 21.74% | 21.05%
